Reference: patent publication US20240262815A1, “HETEROARYL DERIVATIVE, METHOD FOR PREPARING SAME, AND PHARMACEUTICAL COMPOSITION COMPRISING SAME AS ACTIVE INGREDIENT” (VORONOI INC., priority 2021, published 2024)

Test system: SK-BR-3 cancer cells
Experiment: Inhibitory activity against proliferation of SK-BR-3 cancer cells (CellTiter-Glo)
Type: cell-based
Conditions: Homo sapiens, SK-BR-3, 120 h, ErbB2-overexpressing SK-BR-3 cells, 120 hours after treatment
Experimental: To evaluate the inhibitory activity of a compound according to the present invention against the proliferation of ErbB2-overexpressing cancer cells, the following experiment were performed.
10% FBS-added McCOY'S 5A was used for SK-BR-3 cancer cells. 20% FBS-added RPMI-1640 was used for BT-474 cancer cells. Transduced Ba/F3 cells were cultured in a RPMI-1640 medium to which 1 μg/ml puromycin (Invitrogen) was added.
48 hours before compound treatment, each type of the SK-BR-3 and BT-474 cells were seeded at 5,000 cells/well in a white clear bottom 96 well plate (Corning). The compound was diluted in dimethyl sulfoxide (SK-BR-3: 3-fold dilution, a total of 12 concentrations, BT-474: […], a total of 12 concentrations) and injected at 1 μl to have the final concentration of 0.2 nM to 5 μM. As for measurement of live cells, 120 hours after treatment with the compound, a CellTiter-Glo luminescent cell-viability reagent (Promega) was used to store the cells at room temperature for 10 minutes, followed by measurement of luminescence using a reader (SynergyNeo, Biotek). Each test was repeated three times.
The result values were calculated as a cell growth rate (%) compared to the control group. A graph was plotted using the GraphPad Prism version 8.3.0 program, and GI50 values were calculated.

GI50 [nM] | Compound
< 50 | C=CC(=O)Nc1cc(Nc2cc(N3OCCC3c3cccc(-c4cccc(C(F)(F)F)c4)c3)ncn2)c(OC)cc1N(C)CCN(C)C (stereo not drawn) [Example 236, N-(2-((2-(dimeth-ylamino)ethyl)-(methyl)amino)-4-methoxy-5-((6-(3-(3′-(trifluorometh-yl)-[1,1′-biphenyl]-3-yl)isoxazolidin-2-yl)pyrimidin-4-yl)amino)phenyl)-acrylamide]
50 to 500 | C=CC(=O)Nc1cc(Nc2cc(N3OCCC3c3cccc(-c4cccc(C(F)(F)F)c4)c3)ncn2)c(OC)cc1N1CCN(C)CC1 (stereo not drawn) [Example 237]
< 50 | C=CC(=O)Nc1cc(Nc2cc(N3OCCC3c3cccc(-c4nccs4)c3)ncn2)c(OC)cc1N(C)CCN(C)C (stereo not drawn) [Example 238, N-(2-((2-(dimeth-ylamino)ethyl)-(methyl)amino)-4-methoxy-5-((6-(3-(3-(thiazol-2-yl)-phenyl)isoxazol-idin-2-yl)pyrim-idin-4-yl)amino)-phenyl)acrylamide]
< 50 | C=CC(=O)Nc1cc(Nc2cc(N3OCC[C@@H]3c3cc(F)cc(-c4cccc(N(C)C)c4)c3)ncn2)c(OC)cc1N(C)CCN(C)C [Example 239]
< 50 | C=CC(=O)Nc1cc(Nc2cc(N3OCC[C@@H]3c3cc(F)cc(-c4ncnn4C)c3)ncn2)c(OC)cc1N(C)CCN(C)C [Example 240, (R)-N-(2-((2-(dimethylamino)-ethyl)(methyl)-amino)-5-((6-(3-(3-fluoro-5-(1-methyl-1H-1,2,4-triazol-5-yl)phen-yl)-isoxazolidin-2-yl)pyrimidin-4-yl)-amino)-4-methoxy-phen-yl)acrylamide]
500 to 5000 | C=CC(=O)Nc1cc(Nc2cc(N3OCC[C@H]3c3cccc(-c4cccc(F)c4)c3)ncn2)c(OC)cc1N1CCN(C)CC1 [Example 241, (S)-N-(5-((6-(3-(3′-fluoro-[1,1′-biphenyl]-3-yl)-isoxazolidin-2-yl)-pyrimidin-4-yl)-amino)-4-methoxy-2-(4-methylpiper-azin-1-yl)phenyl)-acrylamide]
< 50 | C=CC(=O)Nc1cc(Nc2cc(N3OCC[C@@H]3c3cc(F)cc(-c4cccs4)c3)ncn2)c(OC)cc1N(C)CCN(C)C [Example 243, (R)-N-(2-((2-(dimethylamino)-ethyl)(methyl)-amino)-5-((6-(3-(3-fluoro-5-(thio-phen-2-yl)phenyl)-isoxazolidin-2-yl)-pyrimidin-4-yl)-amino)-4-methoxy-phenyl)acrylamide]
< 50 | C=CC(=O)Nc1cc(Nc2cc(N3OCC[C@@H]3c3ccc(F)c(OCc4cccc(F)c4)c3)ncn2)c(OC)cc1N1CCN(C)CC1 [Example 244, (R)-N-(5-((6-(3-(4-fluoro-3-((3-fluorobenzyl)oxy)-phenyl)isoxazol-idin-2-yl)pyrim-idin-4-yl)amino)-4-methoxy-2-(4-methylpiperazin-1-yl)phenyl)-acrylamide]
< 50 | C=CC(=O)Nc1cc(Nc2cc(N3OCC[C@@H]3c3cccc(C(=O)NC(C)C)c3)ncn2)c(OC)cc1N1CCN(C)CC1 [Example 246, (R)-3-(2-(6-((5-acrylamido-2-methoxy-4-(4-methylpiperazin-1-yl)phenyl)-amino)pyrimidin-4-yl)isoxazolidin-3-yl)-N-isopropyl-benzamide]
< 50 | C=CC(=O)Nc1cc(Nc2cc(N3OCC[C@@H]3c3cccc(C(=O)NC(C)C)c3)ncn2)c(OC)cc1N(C)CCN(C)C [Example 247, (R)-3-(2-(6-((5-acrylamido-4-((2-(dimethylamino)-ethyl)(methyl)-amino)-2-methoxy-phenyl)amino)pyr-imidin-4-yl)isox-azolidin-3-yl)-N-isopropylbenzamide]
50 to 500 | C=CC(=O)Nc1cc(Nc2cc(N3OCCC3c3cccc(-c4cc(F)cc(F)c4)c3)ncn2)c(OC)cc1N1CCC(N2CCN(C3CC3)CC2)CC1 (stereo not drawn) [Example 249, N-(2-(4-(4-cyclo-propylpiperazin-1-yl)piperidin-1-yl)-5-((6-(3-(3′,5′-difluoro-[1,1′-biphenyl]-3-yl)-isoxazolidin-2-yl)-pyrimidin-4-yl)-amino)-4-methoxy-phenyl)acrylamide]
< 50 | C=CC(=O)Nc1cc(Nc2cc(N3OCCC3c3cccc(-c4cccc(C#N)c4)c3)ncn2)c(OC)cc1N1CCC(N2CCN(C3CC3)CC2)CC1 (stereo not drawn) [Example 250, N-(5-((6-(3-(3′-cyano-[1,1′-biphen-yl]-3-yl)isoxazol-idin-2-yl)pyrim-idin-4-yl)amino)-2-(4-(4-cycloprop-ylpiperazin-1-yl)-piperidin-1-yl)-4-methoxyphenyl)-acrylamide]

Second part, the compound before the results:

Compound | GI50 [nM]
C=CC(=O)Nc1cc(Nc2cc(N3OCCC3c3cccc(-c4ccc(C)s4)c3)ncn2)c(OC)cc1N1CCN(C)CC1 (stereo not drawn) [Example 214, N-(4-methoxy-2-(4-methylpiper-azin-1-yl)-5-((6-(3-(3-(5-methyl-thiophen-2-yl)-phenyl)isoxazol-idin-2-yl)pyrim-idin-4-yl)amino)-phenyl)acrylamide] | 50 to 500
C=CC(=O)Nc1cc(Nc2cc(N3OCC[C@@H]3c3cccc(-c4ccccc4)c3)ncn2)c(OC)cc1N1CCN(C(C)=O)CC1 [Example 215, (R)-N-(5-((6-(3-([1,1′-biphenyl]-3-yl)isoxazolidin-2-yl)pyrimidin-4-yl)-amino)-2-(4-acetyl-piperazin-1-yl)-4-methoxyphenyl)-acrylamide] | < 50
C=CC(=O)Nc1cc(Nc2cc(N3OCC[C@@H]3c3cc(F)cc(Oc4ccn(C)n4)c3)ncn2)c(OC)cc1N1CCN(C)CC1 [Example 217, (R)-N-(5-((6-(3-(3-fluoro-5-((1-methyl-1H-pyr-azol-3-yl)oxy)-phenyl)isoxazol-idin-2-yl)pyrim-idin-4-yl)amino)-4-methoxy-2-(4-methylpiperazin-1-yl)phenyl)-acrylamide] | 50 to 500
C=CC(=O)Nc1cc(Nc2cc(N3OCC[C@@H]3c3cc(F)cc(Oc4ccn(C)n4)c3)ncn2)c(OC)cc1N(C)CCN(C)C [Example 218, (R)-N-(2-((2-(dimethylamino)-ethyl)(methyl)-amino)-5-((6-(3-(3-fluoro-5-((1-methyl-1H-pyr-azol-3-yl)oxy)-phenyl)isoxazol-idin-2-yl)pyrim-idin-4-yl)amino)-4-methoxyphen-yl)acrylamide] | < 50
C=CC(=O)Nc1cc(Nc2cc(N3OCC[C@@H]3c3cc(F)cc(Oc4cccc(F)c4)c3)ncn2)c(OC)cc1N1CCN(CC)CC1 [Example 220, (R)-N-(2-(4-ethyl-piperazin-1-yl)-5-((6-(3-(3-fluoro-5-(3-fluorophenoxy)-phenyl)isoxazol-idin-2-yl)pyrim-idin-4-yl)amino)-4-methoxyphen-yl)acrylamide] | < 50
C=CC(=O)Nc1cc(Nc2cc(N3OCC[C@@H]3c3cc(F)cc(Oc4cccc(F)c4)c3)ncn2)c(OC)cc1N1CCOCC1 [Example 222, (R)-N-(5-((6-(3-(3-fluoro-5-(3-fluorophenoxy)-phenyl)isoxazol-idin-2-yl)pyrim-idin-4-yl)amino)-4-methoxy-2-morpholinophen-yl)acrylamide] | < 50
C=CC(=O)Nc1cc(Nc2cc(N3OCC[C@@H]3c3cccc(Oc4cc(F)cc(F)c4)c3)ncn2)c(OC)cc1N(C)CCN(C)C [Example 226, (R)-N-(5-((6-(3-(3-(3,5-difluoro-phenoxy)phenyl)-isoxazolidin-2-yl)-pyrimidin-4-yl)-amino)-2-((2-(dimethylamino)-ethyl)(methyl)-amino)-4-methoxy-phenyl)acrylamide] | < 50
C=CC(=O)Nc1cc(Nc2cc(N3OCC[C@H]3c3cccc(OCc4cccc(F)c4)c3)ncn2)c(OC)cc1N(C)CCN(C)C [Example 229, (S)-N-(2-((2-(dimethylamino)-ethyl)(methyl)-amino)-5-((6-(3-(3-((3-fluorobenz-yl)oxy)phenyl)-isoxazolidin-2-yl)-pyrimidin-4-yl)-amino)-4-methoxy-phenyl)acrylamide] | 50 to 500
C=CC(=O)Nc1cc(Nc2cc(N3OCC[C@@H]3c3cccc(-c4ccccc4)c3)ncn2)c(OC)cc1N1CCN(CCC)CC1 [Example 230, (R)-N-(5-((6-(3-([1,1′-biphenyl]-3-yl)isoxazolidin-2-yl)pyrimidin-4-yl)-amino)-4-methoxy-2-(4-propylpiper-azin-1-yl)phenyl)-acrylamide] | < 50
C=CC(=O)Nc1cc(Nc2cc(N3OCCC3c3cccc(-c4cnn(C)c4)c3)ncn2)c(OC)cc1N1CCN(C)CC1 (stereo not drawn) [Example 232, N-(4-methoxy-5-((6-(3-(3-(1-meth-yl-1H-pyrazol-4-yl)phenyl)isoxazol-idin-2-yl)pyrim-idin-4-yl)amino)-2-(4-methylpiper-azin-1-yl)phenyl)-acrylamide] | < 50
C=CC(=O)Nc1cc(Nc2cc(N3OCCC3c3cccc(-c4cnn(C)c4)c3)ncn2)c(OC)cc1N1CCC(N2CCN(C3CC3)CC2)CC1 (stereo not drawn) [Example 234, N-(2-(4-(4-cyclo-propylpiperazin-1-yl)piperidin-1-yl)-4-methoxy-5-((6-(3-(3-(1-methyl-1H-pyrazol-4-yl)-phenyl)isoxazol-idin-2-yl)pyrim-idin-4-yl)amino)-phenyl)acrylamide] | < 50
C=CC(=O)Nc1cc(Nc2cc(N3OCCC3c3cccc(-c4cnc5cccnn45)c3)ncn2)c(OC)cc1N(C)CCN(C)C (stereo not drawn) [Example 235, N-(2-((2-(dimeth-ylamino)ethyl)-(methyl)amino)-5-((6-(3-(3-(imidazo[1,2-b]-pyridazin-3-yl)-phenyl)isoxazol-idin-2-yl)pyrim-idin-4-yl)amino)-4-methoxyphen-yl)acrylamide] | < 50
